Data on twelve molecules can be found in PubChem BioAssay (NCI).

The structures appear in SMILES notation.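 Five concentrations, 48 hours, 96-well plates. Here, GI50 denotes the concentration required for 50% inhibition of growth. Definition used: TGI = concentration required for complete inhibition of growth.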

Test systems include CCRF-CEM leukemia; HCC-2998 colon; EKVX NSCLC; HCT-15 colon; SK-MEL-28 melanoma; IGROV1 ovarian; 786-0 renal; MOLT-4 leukemia; OVCAR-3 ovarian; NCI-H226 lung.
Holding throughout (assay): NCI-60 cell line screen, 48 h

In the case of `CCCCCCCC(=O)OCC1OC(n2cc(F)c(=O)[nH]c2=O)C(N)C(OC(=O)CCCCCCC)C1O` (stereo unspecified), the TGI was found to be 40.4 µM in the assay on CCRF-CEM leukemia; 35.3 µM with HCC-2998 colon; 34 µM in the assay on EKVX NSCLC; 34.2 µM with HCT-15 colon; 34.1 µM in the assay with SK-MEL-28 melanoma; 47.7 µM with IGROV1 ovarian. The TGI in the assay on 786-0 renal was 33.5 µM; with MOLT-4 leukemia it was 33.6 µM; with OVCAR-3 ovarian, 41.2 µM.

Regarding `COc1cc(OC)c(OC)cc1/C=N/NC(=O)N/N=C/c1cc(OC)c(OC)cc1OC`, the TGI in the assay on CCRF-CEM leukemia, with EKVX NSCLC, with HCT-15 colon, with SK-MEL-28 melanoma, with IGROV1 ovarian and in the assay on 786-0 renal was above 100 µM throughout. For the same molecule, the TGI with NCI-H226 lung, in the assay on MOLT-4 leukemia and in the assay with OVCAR-3 ovarian was above 100 µM in each case.

With `O/N=C1\CCCCC1C(NO)c1ccccc1` (stereo unspecified), the TGI with CCRF-CEM leukemia, in the assay on HCC-2998 colon, in the assay with EKVX NSCLC, in the assay with HCT-15 colon, in the assay on SK-MEL-28 melanoma and in the assay with IGROV1 ovarian was above 100 µM each time. For the same molecule, the TGI in the assay with 786-0 renal, in the assay on MOLT-4 leukemia and in the assay with OVCAR-3 ovarian was above 100 µM in each case.

For `CCOc1ccc(OCC(=O)O)c2c1CCCC2=O`, the TGI in the assay with HCC-2998 colon, in the assay with EKVX NSCLC, in the assay on HCT-15 colon, in the assay on SK-MEL-28 melanoma, in the assay on IGROV1 ovarian and in the assay with 786-0 renal was above 100 µM throughout. Besides, the TGI in the assay on NCI-H226 lung, in the assay on MOLT-4 leukemia and with OVCAR-3 ovarian was above 100 µM throughout.

Take `CCSc1nc(N=Cc2ccccc2O)c2cn[nH]c2n1`: the GI50 in the assay on EKVX NSCLC was 47.2 µM; in the assay with HCT-15 colon it was 39.8 µM; with SK-MEL-28 melanoma, 33 µM; in the assay on IGROV1 ovarian it was 40.9 µM; in the assay with 786-0 renal, 41.8 µM; with NCI-H226 lung, 17.9 µM. Besides, the GI50 in the assay on MOLT-4 leukemia is 52.8 µM; with OVCAR-3 ovarian it was 13.8 µM. For the same molecule, the TGI in the assay on EKVX NSCLC is above 100 µM; in the assay with HCT-15 colon, above 100 µM; in the assay on SK-MEL-28 melanoma, above 100 µM; in the assay with IGROV1 ovarian it was above 100 µM; in the assay with 786-0 renal, above 100 µM; with NCI-H226 lung, 73.9 µM. For the same molecule, the results for the TGI in the assay with MOLT-4 leukemia and in the assay with OVCAR-3 ovarian were above 100 µM and 61.2 µM, respectively.

As for `C[N+](C)(C)CC(=O)N/N=C(/Cc1cc(=O)oc2cc(O)ccc12)C(=O)Nc1ccc(Cl)cc1`, the TGI in the assay with CCRF-CEM leukemia, in the assay with HCC-2998 colon, with EKVX NSCLC, with SK-MEL-28 melanoma, with IGROV1 ovarian and with 786-0 renal was above 100 µM in each case. Also, the TGI in the assay on MOLT-4 leukemia and in the assay with OVCAR-3 ovarian was above 100 µM each time.

`O=c1[nH]c(O)c(C=Nc2ccc(-c3nc4ccccc4o3)cc2)c(=O)[nH]1`: the GI50 in the assay with EKVX NSCLC is above 100 µM; in the assay on HCT-15 colon, 32.4 µM; in the assay on SK-MEL-28 melanoma, 16.6 µM; with IGROV1 ovarian, above 100 µM; with 786-0 renal, 32.9 µM; in the assay with NCI-H226 lung, 90.3 µM. Further, the GI50 with MOLT-4 leukemia was above 100 µM; in the assay with OVCAR-3 ovarian, 15.6 µM. For the same molecule, the TGI in the assay with EKVX NSCLC was above 100 µM; in the assay with HCT-15 colon it was above 100 µM; in the assay with SK-MEL-28 melanoma, 47 µM; in the assay on IGROV1 ovarian, above 100 µM; in the assay on 786-0 renal, above 100 µM; in the assay on NCI-H226 lung it was above 100 µM. Moreover, the TGI was above 100 µM in the assay on MOLT-4 leukemia and 57.4 µM with OVCAR-3 ovarian.

For the molecule `CNc1nc(N)nc(Nc2ccc(I)cc2)c1N=O`, the TGI in the assay with CCRF-CEM leukemia, with HCC-2998 colon, with EKVX NSCLC, with HCT-15 colon, in the assay with SK-MEL-28 melanoma and with IGROV1 ovarian was above 100 µM in each case. Moreover, the TGI in the assay on 786-0 renal, in the assay on MOLT-4 leukemia and in the assay with OVCAR-3 ovarian was above 100 µM in each case.

As for `N#CC(I)CS(=O)(=O)c1ccccc1` (stereo unspecified), the GI50 was 17.7 µM in the assay with HCC-2998 colon; 19.4 µM in the assay on EKVX NSCLC; 5.48 µM with HCT-15 colon; 16.6 µM in the assay on SK-MEL-28 melanoma; 16.2 µM with IGROV1 ovarian; 19.1 µM in the assay on 786-0 renal. Besides, the GI50 with NCI-H226 lung was 17.9 µM; in the assay on OVCAR-3 ovarian it was 2.03 µM. Besides, the TGI in the assay with HCC-2998 colon is 31.8 µM; in the assay on EKVX NSCLC it was 44.2 µM; in the assay on HCT-15 colon it was 19.4 µM; with SK-MEL-28 melanoma it was 30.7 µM; in the assay with IGROV1 ovarian, 39.8 µM; in the assay on 786-0 renal, 33.2 µM. The TGI in the assay on NCI-H226 lung came out at 37.8 µM; in the assay with OVCAR-3 ovarian, 3.55 µM.

As to `COc1ccc(-c2cc(=O)oc3c4c(ccc23)OCN(Cc2ccc(F)cc2)C4)cc1`, the GI50 in the assay with CCRF-CEM leukemia is 25.8 µM; in the assay with HCC-2998 colon, 19.2 µM; in the assay on HCT-15 colon, 15.4 µM; in the assay on SK-MEL-28 melanoma, 15.1 µM; in the assay with IGROV1 ovarian, 20.5 µM; in the assay with 786-0 renal, 15.1 µM. The results for the GI50 in the assay with NCI-H226 lung, in the assay with MOLT-4 leukemia and with OVCAR-3 ovarian were 18.2 µM, 19.4 µM and 15.3 µM, respectively. Further, the TGI in the assay on CCRF-CEM leukemia turned out to be 82 µM; in the assay on HCC-2998 colon, 37 µM; with HCT-15 colon it was 31.8 µM; in the assay on SK-MEL-28 melanoma it was 30.7 µM; in the assay with IGROV1 ovarian it was 51.5 µM; with 786-0 renal, 32.8 µM. The TGI was found to be 54.5 µM in the assay on NCI-H226 lung, 58.3 µM in the assay on MOLT-4 leukemia and 29.9 µM in the assay with OVCAR-3 ovarian.

In the case of `CC(=O)N/C(=C\c1ccccc1/C=C(\NC(C)=O)c1nc2cc(C)c(C)cc2[nH]1)c1nc2cc(C)c(C)cc2[nH]1`, the TGI with CCRF-CEM leukemia is above 100 µM; in the assay with EKVX NSCLC it was 32.5 µM; with SK-MEL-28 melanoma, 48.8 µM; with IGROV1 ovarian, 66.3 µM; in the assay on 786-0 renal it was 46.6 µM; in the assay with NCI-H226 lung, above 100 µM. Also, the results for the TGI with MOLT-4 leukemia and with OVCAR-3 ovarian were 97.4 µM and 35.7 µM, respectively.

`O=C1C=C(c2c(O)ccc3ccccc23)c2cc(O)ccc2C1=O`: the TGI in the assay on HCC-2998 colon amounted to 33.6 µM; in the assay with EKVX NSCLC it was 38.2 µM; in the assay on HCT-15 colon, 33 µM; in the assay with SK-MEL-28 melanoma, 36 µM; in the assay on IGROV1 ovarian, 30.3 µM; in the assay with 786-0 renal, 33.9 µM. Moreover, the values for the TGI in the assay on NCI-H226 lung, with MOLT-4 leukemia and with OVCAR-3 ovarian were 44.1 µM, 8.67 µM and 22.5 µM, respectively.
